Experimental data published in ChEMBL document CHEMBL1143666 (J Med Chem, 2007).

Assays:
MCF7 = test: Antiproliferative activity against human MCF7 cells by MTS assay; format: functional, cell-based
Heat shock protein HSP90 [1] = biological target: T1, Heat shock protein HSP90 (Homo sapiens, UniProt P07900+P08238); conditions: mcf7
Description: Inhibition of human recombinant HSP90 in MCF7 cells assessed as Her2 degradation

BT-474 = test: Antiproliferative activity against human BT474 cells by MTS assay; format: functional, cell-based
Heat shock protein HSP90 [2] = biological target: T1, Heat shock protein HSP90; conditions: mcf7; remark: listed apart in the source
Description: Binding affinity to human recombinant HSP90 in MCF7 cell lysates assessed as inhibition of biotinylated-geldanamycin binding

Heat shock protein HSP90 [3] = biological target: T1, Heat shock protein HSP90
Description: Binding affinity to human recombinant HSP90 assessed as inhibition of biotinylated-geldanamycin binding

[4] = Solubility in simulated gastric fluid at pH 2.0; format: physicochemical
[5] = Solubility in simulated intestinal fluid at pH 6.5; format: physicochemical
[6] = Solubility in mouse serum at pH 7.4; format: ADME, cell-free
[7] = Cmax in BALB/c mouse at 100 mg/kg, po; format: ADME, organism-based; parameters: dose 100 mg/kg, route oral; conditions: in vivo
[8] = Tmax in BALB/c mouse at 100 mg/kg, po; format: ADME, organism-based; parameters: dose 100 mg/kg, route oral; conditions: in vivo
[9] = AUC in BALB/c mouse at 100 mg/kg, po; format: ADME, organism-based; parameters: dose 100 mg/kg, route oral; conditions: plasma
[10] = Half life in BALB/c mouse at 100 mg/kg, po; format: ADME, organism-based; parameters: dose 100 mg/kg, route oral; conditions: in vivo
Liver microsomes = test: Metabolic stability in human liver microsomes; format: ADME, Microsome
NCI-N87 [11] = test: Antitumor activity in human N87 cells xenografted mouse assessed as tumor growth inhibition at 60 mg/kg, po administered weekly 5-day-on and 2-day-off schedule for 5 weeks; format: functional; conditions: read-out: TGI
[12] = Aqueous solubility of the compound; format: physicochemical; conditions: aqueous medium
RPTEC [13] = test: Antiproliferative activity against human RPTEC; format: cell-based
HT-29 = test: Antiproliferative activity against human HT29 cells; format: functional, cell-based
RPTEC [14] = test: Selectivity index, ratio of IC50 for human RPTEC cells to IC50 for HT29 cells; format: functional, cell-based
RPTEC [15] = test: Selectivity index, ratio of IC50 for human RPTEC cells to IC50 for MCF7 cells; format: functional, cell-based
NCI-N87 [16] = test: Antitumor activity in human N87 cells xenografted mouse assessed as tumor growth inhibition at 125 mg/kg, po administered weekly 5-day-on and 2-day-off schedule for 5 weeks; format: functional; conditions: read-out: TGI
NCI-N87 [17] = test: Antitumor activity in human N87 cells xenografted mouse assessed as tumor growth inhibition at 90 mg/kg, ip administered weekly 5-day-on and 2-day-off schedule for 5 weeks; format: functional; conditions: route intraperitoneal, read-out: TGI
Heat shock protein HSP90 [18] = biological target: T1, Heat shock protein HSP90; conditions: ndf
Description: Binding affinity to HSP90 in human NDF cell lysates assessed as inhibition of biotinylated-geldanamycin binding

Heat shock protein HSP90 [19] = biological target: T1, Heat shock protein HSP90; conditions: mcf7; remark: listed apart in the source
Description: Selectivity for HSP90 in MCF7 cells over HSP90 in NDF cells

SMILES | IC50 (MCF7) | IC50 (Heat shock protein HSP90 [1]) | IC50 (BT-474) | IC50 (Heat shock protein HSP90 [2]) | other results
C#CCCCn1c(Cc2cc(OC)c(OC)c(OC)c2Cl)nc2c(N)nc(F)nc21 | 1200 nM | – | – | – | –
Cc1cnc(Cn2cnc3c(Cl)nc(N)nc32)c(C)c1[N+](=O)[O-] | – | 1000 nM | – | – | –
CCOc1c(C)cnc(Cn2cnc3c(Cl)nc(N)nc32)c1C | – | 1500 nM | – | – | –
Cc1cnc(Cn2cnc3c(Cl)nc(N)nc32)c(C)c1O | – | 100000 nM | – | – | –
COc1cc(Cn2cnc3c(Cl)nc(N)nc32)c(I)c(OC)c1OC | – | 340 nM | – | – | –
Cc1cnc(Cn2cnc3c(Cl)nc(N)nc32)c(C)c1N | – | 5800 nM | – | – | –
COc1c(C)c[n+]([O-])c(Cn2cnc3c(Cl)nc(N)nc32)c1C | 100 nM | 80 nM | 150 nM | 30 nM | IC50 (Heat shock protein HSP90 [3]): 800 nM
Cc1cnc(Cn2cnc3c(Cl)nc(N)nc32)c(C)c1OC(C)C | – | 1500 nM | – | – | –
COc1cc(Cn2cnc3c(Br)nc(N)nc32)c(Br)c(OC)c1OC | – | 55 nM | – | – | –
COc1c(C)ncc(Cn2cnc3c(Cl)nc(N)nc32)c1C.Cl | 150 nM | 20 nM | 50 nM | 18 nM | solubility [4]: 451 µg/mL; solubility [5]: 234 µg/mL; solubility [6]: 186 µg/mL; Cmax [7]: 28200 ng/mL; Tmax [8]: 6 min; AUC [9]: 9000 ng·h/mL; half-life [10]: 54 min; Stability (Liver microsomes): 83%; inhibition in vivo at 60 mg/kg (NCI-N87 [11]): 83%; IC50 (Heat shock protein HSP90 [3]): 900 nM
Cc1cnc(Cn2cnc3c(Cl)nc(N)nc32)c(C)c1[S+](C)[O-] (stereo unspecified) | – | > 10000 nM | – | 10000 nM | –
COc1c(C)c(Cl)nc(Cn2cnc3c(Cl)nc(N)nc32)c1C | 500 nM | 90 nM | 500 nM | 25 nM | –
COc1cc(Cn2cnc3c(OC)nc(N)nc32)c(Br)c(OC)c1OC | – | 45000 nM | – | – | –
COc1ccc(OC)c(Cn2cnc3c(Cl)nc(N)nc32)c1 | – | 3000 nM | – | – | –
COc1cc(Cn2cnc3c(Cl)nc(N)nc32)c(Cl)c(OC)c1OC | – | 50 nM | – | – | solubility [12]: < 1 µg/mL
Cc1cnc(Cn2cnc3c(Cl)nc(N)nc32)c(C)c1C | 300 nM | 42 nM | 80 nM | 35 nM | –
COc1c(C)cnc(Cn2cnc3c(Cl)nc(N)nc32)c1C.Cl | 100 nM | – | 100 nM | – | IC50 (RPTEC [13]): 600 nM; IC50 (HT-29): 130 nM; selectivity index (RPTEC [14]): 5; selectivity index (RPTEC [15]): 6; solubility [4]: 240 µg/mL; solubility [5]: 87 µg/mL; solubility [6]: 176 µg/mL; Cmax [7]: 10000 ng/mL; Tmax [8]: 6 min; AUC [9]: 4800 ng·h/mL; half-life [10]: 48 min; Stability (Liver microsomes): 86%; inhibition in vivo at 125 mg/kg (NCI-N87 [16]): 87%
COc1cc(Cn2cnc3c(C)nc(N)nc32)c(Cl)c(OC)c1OC | – | 1800 nM | – | – | –
Cc1cnc(Cn2cnc3c(Cl)nc(N)nc32)c(C)c1Cl | 100 nM | 35 nM | 300 nM | 10 nM | IC50 (RPTEC [13]): 5000 nM; IC50 (HT-29): 500 nM; selectivity index (RPTEC [14]): 10; selectivity index (RPTEC [15]): 50
CSc1c(C)cnc(Cn2cnc3c(Cl)nc(N)nc32)c1C | 500 nM | 27 nM | 90 nM | 40 nM | IC50 (RPTEC [13]): 2300 nM; IC50 (HT-29): 200 nM; selectivity index (RPTEC [14]): 12; selectivity index (RPTEC [15]): 5
COc1cc(Cn2cnc3c(N)nc(N)nc32)c(Br)c(OC)c1OC | – | 17000 nM | – | – | –
COc1cc(Cn2cnc3c(Cl)nc(N)nc32)cc(OC)c1OC | – | 2000 nM | – | – | –
C=CCNC1=C2C[C@@H](C)C[C@H](OC)[C@H](O)[C@@H](C)/C=C(\C)[C@H](OC(N)=O)[C@@H](OC)/C=C\C=C(/C)C(=O)NC(=CC1=O)C2=O [TANESPIMYCIN] | 10 nM | – | 10 nM | – | IC50 (RPTEC [13]): 100 nM; IC50 (HT-29): 2 nM; inhibition in vivo at 90 mg/kg (NCI-N87 [17]): 70%
COc1cc(Cn2cnc3c(Cl)nc(N)nc32)c(Br)c(OC)c1OC | – | 70 nM | – | – | –
Cc1cnc(Cn2cnc3c(Cl)nc(N)nc32)c(C)c1I | 30 nM | 9 nM | 30 nM | 3 nM | IC50 (RPTEC [13]): 150 nM; IC50 (HT-29): 23 nM; selectivity index (RPTEC [14]): 7; selectivity index (RPTEC [15]): 5; IC50 (Heat shock protein HSP90 [18]): 1000 nM; IC50 (Heat shock protein HSP90 [19]): 333000 nM
COc1cc(Cn2cnc3cnc(N)nc32)c(Br)c(OC)c1OC | – | 50000 nM | – | – | –
Cc1cnc(Cn2cnc3c(Cl)nc(N)nc32)c(C)c1 | – | 7500 nM | – | 4000 nM | –
COc1cc(Cn2cnc3c(S)nc(N)nc32)c(Br)c(OC)c1OC | – | 100000 nM | – | – | –
Cc1cnc(Cn2cnc3c(Cl)nc(N)nc32)c(C)c1Br | 30 nM | 15 nM | 50 nM | 2 nM | IC50 (RPTEC [13]): 1300 nM; IC50 (HT-29): 130 nM; selectivity index (RPTEC [14]): 10; selectivity index (RPTEC [15]): 43; IC50 (Heat shock protein HSP90 [18]): 800 nM; IC50 (Heat shock protein HSP90 [19]): 400000 nM
COc1cc(Cn2cnc3c(O)nc(N)nc32)c(Cl)c(OC)c1OC | – | 700 nM | – | – | –
